Patent publication US8575216B2, “Method of treatment for acute myelogenous leukemia” (priority 2009, dated 2013)
“And” between values parts separate entries of the source, which are not always exact repeats. Identical values can stand only once. “Also recorded” adds a separate entry of the source. Like-named read-outs stand apart in the source and are kept apart here.

Tests used:
primary AML cells [1] = assay: Ex vivo cytotoxicity on primary AML cells (cell viability and apoptosis assays)
[2] = 5 patients, 0.125 mg/m^2, cited from earlier work
ERK phosphorylation = assay: Ex vivo ERK phosphorylation in clinical AML samples (Western analysis); assay type: cell-based, human
[3] = CINJ TPA Phase 1 study, relapsed/refractory malignancies: clinical response and toxicity; assay type: in vivo, human
From the text: 12-O-tetradecanoylphorbol-13-acetate (TPA), an activator of protein kinase C, is being developed as a therapeutic agent for patients with acute myelogenous leukemia (AML) because of its profound effects on intracellular signaling pathways, it's capacity to induce differentiation and/or apoptosis in cell lines, and preliminary clinical data from China indicating effectiveness in myeloid malignancies (Han Z T, Zhu X X, Yang R Y, Sun J Z, Tian G F, Liu X J et al. Effect of intravenous infusions of 12-O-tetradecanoylphorbol-13-acetate (TPA) in patients with myelocytic leukemia: preliminary studies on therapeutic efficacy and toxicity. Proc Natl Acad Sci USA 1998; 95(9):5357-5361). A recently completed Investigator-initiated, Phase I study at The Cancer Institute of New Jersey/Robert Wood Johnson Medical School/UMDNJ represented the only FDA-approved study to administer TPA to patients in the United States and provided a unique opportunity to study the in vivo effects of TPA in patients with relapsed/refractory malignancies for which no standard therapies exist. Thus far clinical evaluation of TPA as a single agent has documented clinical safety when administered on days 1-5 and 8-12.
The initial CINJ TPA Phase 1 study enrolled 35 patients [23 with relapsed/refractory AML, 2 with other myeloid malignancies (CML-blast crisis, myelodysplasia with excess blasts), 3 with Hodgkin's Disease, 3 with non-Hodgkin's lymphoma and 4 with solid tumors]. The majority of patients had relapsed/refractory AML. Our clinical results include one AML patient with stable disease for >5 months, who received 8 TPA infusions. In a second AML patient, a pronounced (5-fold) decline in the number of circulating blasts was seen following TPA administration. This decline in leukemic blasts persisted for 4 weeks; the patient eventually died from a fungal infection.

primary AML cells [4] = test system: primary AML cells
[5] = AML patients, 48 h treatment with induction chemotherapy
From the text: Clinical trial. […] The study was an open-label trial. […] Inclusion criteria included non-pregnant patients with an Eastern Cooperative Oncology Group performance status of 0 to 3, a bilirubin level more than twice the upper limits of normal, aspartate aminotransferase/alanine aminotransferase level more than thrice the upper limits of normal, and creatinine levels more than 1.5 times the upper limits of normal. Patients with current or recent gastrointestinal bleeding were excluded. […] Dexamethasone was administered at a dose of 10 mg p.o. every 6 h beginning at hour 0 and continuing until hour 48. […] Induction chemotherapy consisted of 3 days of idarubicin in combination with a 7-day continuous infusion of cytarabine. Some patients over the age of 60 received a reduced dose of idarubicin and the addition of etoposide (32).

Q: With `CCCCCCCCCCCCCC(=O)O[C@@H]1[C@@H](C)[C@@]2(O)[C@@H](C=C(CO)C[C@]3(O)C(=O)C(C)=C[C@@H]23)[C@@H]2C(C)(C)[C@]12OC(C)=O` [TPA, 12-O-tetradecanoylphorbol-13-acetate] as the molecule, how does the “Cytotoxic effects by TPA concentration” value (primary AML cells [1]; clinical AML samples ex vivo, 32 nM vs 3.2 nM, unpublished observations) read?
A: Its value is 32 nM is more cytotoxic than 3.2 nM.

Q: What about the “Cytotoxic effects, cell viability and apoptosis assays” value (primary AML cells [1]; small panel of clinical AML samples, subset of AML cases) of the same molecule?
A: The value was “direct cytotoxic effects”.

Q: What about the “TPA level in blood, average” value ([2]; immediately post-infusion) of the same molecule?
A: Its value is 1.75 ng/ml blood and 2.8 nM.

Q: What about the “TPA level in blood, average” value ([2]; one hour post infusion) of the same molecule?
A: Its value is 0.93 ng/ml blood and 1.5 nM.

Q: And the ERK phosphorylation (ERK phosphorylation; all primary cultures analyzed by Western analysis, by 1 hour in culture)?
A: The ERK phosphorylation was “strongly induced”.

Q: And the “TPA concentration (as low as) giving detectable increases in ERK phosphorylation” value (ERK phosphorylation; ex vivo exposure of clinical AML samples)?
A: Its value is 0.032 nM.

Q: What about the “DLT's reported” value ([3]; CINJ TPA study) of the same molecule?
A: The value was “grade 3 dyspnea, grade 3 hypoxia and a grade 3 episode of hypotension”.

Q: What about the “Patients with grade III non-hematologic dose limiting toxicities (DLT)” value ([3]; last cohort, 0.188 mg/m^2 d1-5, 8-12) of the same molecule?
A: Its value is 2 out of 3.

Q: And the “Maximum tolerated TPA dose as a single agent” value ([3]; on d1-5 and 8-12)?
A: Its value is 0.125 mg/m^2/d.

Q: And the “Duration of stable disease” value ([3]; one AML patient, 8 TPA infusions)?
A: The value was > 5 months.

Q: What about the “Clinical response of chest wall mass” value ([3]; patient with relapsed and refractory Hodgkin's disease) of the same molecule?
A: Its value is “partial remission”.

Q: And the “Persistence of decline in leukemic blasts” value ([3]; second AML patient)?
A: Its value is 4 weeks.

Q: And the “Decline in the number of circulating blasts” value ([3]; second AML patient, following TPA administration)?
A: Its value is 5 fold.

Q: For `C[C@@H]1C[C@H]2[C@@H]3CCC4=CC(=O)C=C[C@]4(C)[C@@]3(F)[C@@H](O)C[C@]2(C)[C@@]1(O)C(=O)CO` [dexamethasone], which “Effect on TPA cytotoxicity” value (primary AML cells [4]) is on record?
A: The value was “enhance TPA cytotoxicity”.

Q: What about the “Unusual untoward effects attributable to the agent” value [5] of the same molecule?
A: Its value is “did not detect any unusual untoward effects; also recorded: did not, detect any unusual untoward elects”.
